Patent US20090071883A1 (priority 2007, published 2009)

What was measured:
[1] = test system: Cryptosporidium parvum oocysts; conditions: pH 7; cited from earlier work
Erwinia carotovora = assay type: cell-based

Structure (SMILES) | approximate CT values for 99% inactivation [1] | mean log cfu Erwinia carotovora (Erwinia carotovora) [log cfu]
NCl [monochloramine] | ~7200 | 
[O][Cl+][O-] [chlorine dioxide] | ~78 | 0.0
